# Results taken from patent US4399137A, “6-Imidazol-1-yl-3-hydrazino-pyridazines, their preparation and antihypertensive use” (BASF Aktiengesellschaft, priority 1979, dated 1983).
# Read-outs that look alike come from different tables or passages of the source.
# Legend:
# [1] = test system: narcotized rats; experiment: Hypotensive action (blood pressure lowering) on narcotized rats, intravenous administration; format: in vivo, rat (Sprague Dawley); settings: for ED20: Rattus norvegicus, dose producing a 20% lowering of blood pressure, read-out: Hypotensive action ED 20%; for ED20 / Hypotensive action R.E. (relative effectiveness) / factor by which blood pressure-lowering doses are lower than the dihydralazine doses: narcotized rats; for ED20 / Hypotensive action R.E. (relative effectiveness): intravenous; for blood pressure-lowering properties (in words): general statement, no specific model named; for Hypotensive action R.E. (relative effectiveness): dihydralazine = 1.00; for factor by which blood pressure-lowering doses are lower than the dihydralazine doses: relative to dihydralazine
# Protocol: The blood pressure was measured in the […]. The substance was administered into the jugular vein (using 1 ml/kg of an aqueous solution). The ED 20% was determined, as the dose producing a 20% lowering of blood pressure, from the linear regression between the logarithm of the dose (mg/kg) and the relative lowering of the blood pressure (Δ%).
# [2] = test system: spontaneously hypertonic rats; experiment: Anti-hypertensive action on spontaneously hypertonic rats (SHR), oral administration; format: in vivo, rat (Okamoto; settings: for ED20: Rattus norvegicus, dose which lowers systolic pressure by 20%, 2 hours after administration, read-out: Anti-hypertensive action ED 20%; for ED20 / Anti-hypertensive action R.E. (relative effectiveness): SHR, oral; for Anti-hypertensive action R.E. (relative effectiveness): dihydralazine = 1.00; for times as effective as dihydralazine: wake spontaneously hypertonic rats
# Protocol: The anti-hypertensive action was determined on spontaneously hypertonic rats (Okamoto). The substances were administered orally to groups of from 4 to 8 male animals. Before, and 2 hours after, administration, the systolic blood pressure was measured on the tail of the rat by means of a piezoelectric crystal sensor. The ED 20 was determined, as the dose which lowers the systolic pressure by 20%, from the linear regression between the logarithm of the dose (mg/kg) and the relative lowering of blood pressure (Δ%), with due account taken of the values found with placebo-treated control animals.
# [3] = Acute toxicity (LD 50), intraperitoneal administration; format: in vivo; settings: mouse, in vivo; for LD50 at 168 h: ip, mice, intraperitoneal, 50% of the animals died within 7 days
# Protocol: (§1) To determine the acute toxicity (LD 50), the substances were administered intraperitoneally to groups of 10 female NMRI mice (weighing 20-25 g each).
# (§2) The LD 50 was computed (by Probit analysis) as the dose after which 50% of the animals died within 7 days.
# [4] = test system: mice; experiment: as above; format: in vivo; settings: mice, intraperitoneal; dihydralazine = 1.00
# Protocol: as §1, §2
# [5] = ratio LD 50 / anti-hypertensive dose, read-out: toxic doses (LD 50) times as great as the anti-hypertensive doses
# [6] = LD 50 (mice, i.p.) relative to anti-hypertensive ED 20% (SHR, oral), read-out: Therapeutic range Q
SMILES,ED20 [1] [mg/kg],blood pressure-lowering properties (in words) [1],Hypotensive action R.E. (relative effectiveness) [1],ED20 [2] [mg/kg],Anti-hypertensive action R.E. (relative effectiveness) [2],LD50 at 168 h [3] [mg/kg],"selectivity ratio [3, 5]","selectivity ratio [3, 6]",Toxicity R.E. [4],factor by which blood pressure-lowering doses are lower than the dihydralazine doses [1],times as effective as dihydralazine [2]
"CC(C)=NNc1ccc(-n2ccnc2C)nn1 [Example 2 a, 3-(2-Isopropylidene-hydrazino)-6-(2-methyl-imidazol-1-yl)-pyridazine]",0.0464,Particularly active,1.84,2.46,2.78,98.6,40,40.1,2.09,,
"Cc1nccn1-c1ccc(NN)nn1 [Example 1 a, 3-Hydrazino-6-(2-methyl-imidazol-1-yl)-pyridazine]",0.031,Particularly active,2.75,1.41,4.86,193,,137,1.06,2.8,4.9
"CCc1nccn1-c1ccc(NN)nn1 [Example 1 c, 3-Hydrazino-6-(2-ethyl-imidazol-1-yl)-pyridazine]",0.0638,Particularly active,1.34,2.91,2.35,156,,53.6,1.32,1.3,2.4
"NNc1nnc(NN)c2ccccc12 [Dihydralazine, dihydralazine, reference compound]",0.0854,,1.00,6.85,1.00,206,30,30.1,1.00,,
"CCc1nccn1-c1ccc(NN=C(C)C)nn1 [Example 2 b, 3-(2-Isopropylidene-hydrazino)-6-(2-ethyl-imidazol-1-yl)-pyridazine]",0.0464,Particularly active,1.84,2.48,2.76,124,,50.1,1.66,,
